# Assay results as given in patent US10168342B2, “Lipid probes and uses thereof” (THE SCRIPPS RESEARCH INSTITUTE, priority 2015, dated 2019).
# Read-outs that look alike come from different tables or passages of the source.
# Assays:
# [1] = target: T1, AEA-DA lipid probe targets in Neuro2a cells (Mus musculus, UniProt Q61035)
# T1 sequence (Q61035 1-509): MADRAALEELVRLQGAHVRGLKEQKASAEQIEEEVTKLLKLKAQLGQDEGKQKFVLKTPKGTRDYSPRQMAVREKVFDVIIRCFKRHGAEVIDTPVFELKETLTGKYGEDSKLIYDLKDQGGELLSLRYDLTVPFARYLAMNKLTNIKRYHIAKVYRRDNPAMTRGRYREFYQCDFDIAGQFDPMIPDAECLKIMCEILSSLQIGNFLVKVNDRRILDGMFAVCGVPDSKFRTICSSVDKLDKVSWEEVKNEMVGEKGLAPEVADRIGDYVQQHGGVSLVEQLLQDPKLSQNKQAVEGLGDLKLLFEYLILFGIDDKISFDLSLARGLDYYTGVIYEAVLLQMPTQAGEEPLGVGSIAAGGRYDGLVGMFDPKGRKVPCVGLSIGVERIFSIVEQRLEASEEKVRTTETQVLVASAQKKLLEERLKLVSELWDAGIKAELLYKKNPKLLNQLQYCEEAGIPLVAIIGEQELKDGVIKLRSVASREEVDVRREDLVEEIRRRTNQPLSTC
# [2] = target: T2, AEA-DA lipid probe targets in Neuro2a cells (Mus musculus, UniProt Q99J56)
# T2 sequence (Q99J56 1-251): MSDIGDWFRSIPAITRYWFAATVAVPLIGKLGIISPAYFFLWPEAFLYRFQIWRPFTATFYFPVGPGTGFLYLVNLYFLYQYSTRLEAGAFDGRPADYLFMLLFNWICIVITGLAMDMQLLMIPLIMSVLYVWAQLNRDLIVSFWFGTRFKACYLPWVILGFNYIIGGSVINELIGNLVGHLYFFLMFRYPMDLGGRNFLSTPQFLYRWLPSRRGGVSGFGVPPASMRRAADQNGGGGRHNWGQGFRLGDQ
# [3] = target: T3, AEA-DA lipid probe targets in Neuro2a cells (Mus musculus, UniProt Q9D379)
# T3 sequence (Q9D379 1-455): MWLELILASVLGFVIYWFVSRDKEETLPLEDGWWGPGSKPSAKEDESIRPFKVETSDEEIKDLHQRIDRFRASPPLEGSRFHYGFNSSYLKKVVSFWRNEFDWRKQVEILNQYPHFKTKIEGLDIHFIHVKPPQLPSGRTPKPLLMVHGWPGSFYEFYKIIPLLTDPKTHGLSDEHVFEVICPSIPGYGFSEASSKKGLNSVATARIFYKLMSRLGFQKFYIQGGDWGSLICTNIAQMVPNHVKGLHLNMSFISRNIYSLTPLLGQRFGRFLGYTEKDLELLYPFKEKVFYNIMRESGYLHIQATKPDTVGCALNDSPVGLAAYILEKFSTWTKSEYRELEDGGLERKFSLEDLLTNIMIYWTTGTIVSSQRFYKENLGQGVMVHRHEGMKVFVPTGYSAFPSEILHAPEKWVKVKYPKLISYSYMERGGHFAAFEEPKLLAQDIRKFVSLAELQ
# [4] = target: T4, AEA-DA lipid probe targets in Neuro2a cells (Mus musculus, UniProt Q9CR67)
# T4 sequence (Q9CR67 1-247): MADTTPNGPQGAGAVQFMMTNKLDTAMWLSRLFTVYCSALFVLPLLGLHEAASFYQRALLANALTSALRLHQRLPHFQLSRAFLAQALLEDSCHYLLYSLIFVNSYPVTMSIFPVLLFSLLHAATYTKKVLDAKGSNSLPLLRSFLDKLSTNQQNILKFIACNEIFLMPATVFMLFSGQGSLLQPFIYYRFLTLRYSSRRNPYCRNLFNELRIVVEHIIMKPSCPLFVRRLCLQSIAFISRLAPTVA
# [5] = target: AEA-DA lipid probe targets in Neuro2a cells (Mus musculus, UniProt Q62351)
# Chain of AEA-DA lipid probe targets in Neuro2a cells (Mus musculus, UniProt Q62351) (Q62351 whole entry): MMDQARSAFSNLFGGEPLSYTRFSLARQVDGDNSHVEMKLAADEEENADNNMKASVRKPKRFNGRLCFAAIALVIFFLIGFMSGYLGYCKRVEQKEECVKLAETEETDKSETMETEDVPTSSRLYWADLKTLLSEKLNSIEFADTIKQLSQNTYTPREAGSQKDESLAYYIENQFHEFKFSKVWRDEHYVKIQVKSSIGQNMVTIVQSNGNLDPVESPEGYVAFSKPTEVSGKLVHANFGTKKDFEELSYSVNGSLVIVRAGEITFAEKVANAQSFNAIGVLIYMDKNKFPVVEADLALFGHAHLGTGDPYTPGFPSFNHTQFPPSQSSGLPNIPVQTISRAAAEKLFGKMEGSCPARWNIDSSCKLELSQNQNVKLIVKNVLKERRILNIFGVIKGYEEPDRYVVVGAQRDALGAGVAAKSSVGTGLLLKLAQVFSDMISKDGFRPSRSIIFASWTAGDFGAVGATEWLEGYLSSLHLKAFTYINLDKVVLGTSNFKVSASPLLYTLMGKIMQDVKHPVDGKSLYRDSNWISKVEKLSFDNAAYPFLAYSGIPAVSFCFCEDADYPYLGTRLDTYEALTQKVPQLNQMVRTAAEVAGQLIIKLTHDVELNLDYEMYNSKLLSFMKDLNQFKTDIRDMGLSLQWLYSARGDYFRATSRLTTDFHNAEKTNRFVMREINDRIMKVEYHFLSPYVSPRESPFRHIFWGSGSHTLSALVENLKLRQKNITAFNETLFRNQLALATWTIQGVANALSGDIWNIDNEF
# [6] = target: AEA-DA lipid probe targets in Neuro2a cells (Mus musculus, UniProt O55143)
# Chain of AEA-DA lipid probe targets in Neuro2a cells (Mus musculus, UniProt O55143) (O55143 whole entry): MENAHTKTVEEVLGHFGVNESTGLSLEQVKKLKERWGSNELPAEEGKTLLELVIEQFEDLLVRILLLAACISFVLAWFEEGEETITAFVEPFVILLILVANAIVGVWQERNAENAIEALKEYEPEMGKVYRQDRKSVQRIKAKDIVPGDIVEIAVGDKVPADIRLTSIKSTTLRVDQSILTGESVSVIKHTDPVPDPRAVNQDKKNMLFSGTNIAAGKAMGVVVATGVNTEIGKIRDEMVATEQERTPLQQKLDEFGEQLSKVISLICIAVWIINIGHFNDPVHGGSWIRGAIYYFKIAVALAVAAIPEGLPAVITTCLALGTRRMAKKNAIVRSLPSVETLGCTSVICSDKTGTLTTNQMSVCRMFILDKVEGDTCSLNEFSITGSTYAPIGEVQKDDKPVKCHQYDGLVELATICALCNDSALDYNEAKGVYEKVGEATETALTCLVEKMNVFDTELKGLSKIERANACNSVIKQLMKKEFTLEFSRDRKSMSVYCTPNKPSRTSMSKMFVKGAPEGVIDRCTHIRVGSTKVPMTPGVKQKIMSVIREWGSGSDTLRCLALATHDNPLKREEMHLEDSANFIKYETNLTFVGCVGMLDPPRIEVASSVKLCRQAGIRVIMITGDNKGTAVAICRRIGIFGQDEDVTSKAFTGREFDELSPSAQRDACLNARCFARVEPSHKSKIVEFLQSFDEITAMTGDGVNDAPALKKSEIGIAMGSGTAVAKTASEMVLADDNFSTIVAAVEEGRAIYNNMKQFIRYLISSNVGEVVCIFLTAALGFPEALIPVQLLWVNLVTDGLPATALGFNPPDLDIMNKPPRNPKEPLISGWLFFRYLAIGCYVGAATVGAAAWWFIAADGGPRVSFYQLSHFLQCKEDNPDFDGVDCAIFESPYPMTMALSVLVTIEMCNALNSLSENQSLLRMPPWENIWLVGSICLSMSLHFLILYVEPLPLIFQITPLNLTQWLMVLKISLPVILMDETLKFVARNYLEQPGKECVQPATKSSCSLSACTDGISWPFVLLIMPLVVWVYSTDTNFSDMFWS
# [7] = target: T5, AEA-DA lipid probe targets in Neuro2a cells (Mus musculus, UniProt Q8VCB1); settings: for SILAC ratio, TMEM48 (Q8VCB1): Neuro2a cells, AEA-DA probe
# T5 sequence (Q8VCB1 1-673): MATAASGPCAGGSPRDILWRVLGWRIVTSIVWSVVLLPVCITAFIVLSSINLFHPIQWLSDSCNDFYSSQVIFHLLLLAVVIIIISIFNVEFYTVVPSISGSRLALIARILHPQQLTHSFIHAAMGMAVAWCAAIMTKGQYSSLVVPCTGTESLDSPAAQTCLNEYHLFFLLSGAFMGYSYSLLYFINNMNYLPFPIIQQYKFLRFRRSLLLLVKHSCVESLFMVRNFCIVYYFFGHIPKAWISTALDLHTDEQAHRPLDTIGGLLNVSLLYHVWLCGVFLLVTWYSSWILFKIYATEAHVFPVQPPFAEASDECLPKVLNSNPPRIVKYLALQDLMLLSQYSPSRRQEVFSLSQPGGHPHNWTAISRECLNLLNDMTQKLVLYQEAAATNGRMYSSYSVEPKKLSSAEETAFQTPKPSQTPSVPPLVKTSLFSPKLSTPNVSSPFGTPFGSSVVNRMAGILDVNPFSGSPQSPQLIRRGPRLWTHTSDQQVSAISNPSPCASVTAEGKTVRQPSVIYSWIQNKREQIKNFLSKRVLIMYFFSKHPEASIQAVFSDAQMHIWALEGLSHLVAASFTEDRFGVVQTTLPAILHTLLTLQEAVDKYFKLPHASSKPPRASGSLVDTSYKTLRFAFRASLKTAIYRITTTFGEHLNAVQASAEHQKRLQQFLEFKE
# [8] = target: T6, AEA-DA lipid probe targets in Neuro2a cells (Mus musculus, UniProt Q8BTX9)
# T6 sequence (Q8BTX9 1-330): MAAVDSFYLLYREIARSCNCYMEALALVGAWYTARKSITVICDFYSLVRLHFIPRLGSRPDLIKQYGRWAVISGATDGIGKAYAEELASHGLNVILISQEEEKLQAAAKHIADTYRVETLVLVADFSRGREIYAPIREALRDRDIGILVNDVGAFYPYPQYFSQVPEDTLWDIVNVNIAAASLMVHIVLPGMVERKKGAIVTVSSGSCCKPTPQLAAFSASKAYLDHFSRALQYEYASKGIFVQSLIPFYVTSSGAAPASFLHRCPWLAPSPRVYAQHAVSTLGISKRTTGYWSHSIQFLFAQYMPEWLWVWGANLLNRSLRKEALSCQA
compound,measurement,setting,value
"O=C(/C=C/c1cccnc1)NCCCCC1CCN(C(=O)c2ccccc2)CC1 [FK-866, reference compound]",SILAC ratio Hars,[1]; competitor 25 μM,1.3
same,"SILAC ratio, Derl1",[2]; competitor 25 μM,1.3
same,"SILAC ratio, Ephx1",[3]; competitor 25 μM,1.4
same,"SILAC ratio, Tmem33",[4]; competitor 25 μM,1.2
same,SILAC ratio Tfrc,[5]; competitor 25 μM,1.1
same,"SILAC ratio, Atp2a2",[6]; competitor 25 μM,1.1
same,"SILAC ratio, TMEM48 (Q8VCB1)",[7]; competitor 25 μM,1.2
same,"SILAC ratio, Tmem48",[7]; competitor 25 μM,1.2
same,"SILAC ratio, Hsdl1",[8]; competitor 25 μM,1.0
"CCCCC/C=C\C/C=C\C/C=C\C/C=C\CCCC(=O)NCCO [AEA, anandamide, reference compound]",SILAC ratio Hars,[1]; competitor 200 μM,1.2
same,"SILAC ratio, Derl1",[2]; competitor 200 μM,1.8
same,"SILAC ratio, Ephx1",[3]; competitor 200 μM,2.1
same,"SILAC ratio, Tmem33",[4]; competitor 200 μM,1.8
same,SILAC ratio Tfrc,[5]; competitor 200 μM,1.0
same,"SILAC ratio, Atp2a2",[6]; competitor 200 μM,2.2
same,"SILAC ratio, TMEM48 (Q8VCB1)",[7]; competitor 200 μM,1.9
same,"SILAC ratio, Tmem48",[7]; competitor 200 μM,1.9
same,"SILAC ratio, Hsdl1",[8]; competitor 200 μM,2.5
"CN1CCN(C(=O)c2c(-c3ccccc3)c3cc([N+](=O)[O-])ccc3n2C)CC1 [KML110, (1-Methyl-5-nitro-3-phenyl-1H-indol-2-yl)(4-methylpiperazin-1-yl)methanone]",SILAC ratio Hars,[1]; competitor 25 μM,1.5
same,"SILAC ratio, Derl1",[2]; competitor 25 μM,1.2
same,"SILAC ratio, Ephx1",[3]; competitor 25 μM,3.4
same,"SILAC ratio, Tmem33",[4]; competitor 25 μM,1.4
same,SILAC ratio Tfrc,[5]; competitor 25 μM,1.1
same,"SILAC ratio, Atp2a2",[6]; competitor 25 μM,1.3
same,"SILAC ratio, Tmem48",[7]; competitor 25 μM,1.6
same,"SILAC ratio, Hsdl1",[8]; competitor 25 μM,1.4
"C=CCN(C)CCCCCCOc1ccc(C(=O)c2ccc(Br)cc2)c(F)c1 [Ro 48-8071, reference compound]",SILAC ratio Hars,[1]; competitor 25 μM,0.9
same,"SILAC ratio, Derl1",[2]; competitor 25 μM,1.1
same,"SILAC ratio, Ephx1",[3]; competitor 25 μM,2.4
same,"SILAC ratio, Tmem33",[4]; competitor 25 μM,1.1
same,SILAC ratio Tfrc,[5]; competitor 25 μM,0.8
same,"SILAC ratio, Atp2a2",[6]; competitor 25 μM,1.2
same,"SILAC ratio, TMEM48 (Q8VCB1)",[7]; competitor 25 μM,1.1
same,"SILAC ratio, Tmem48",[7]; competitor 25 μM,1.1
same,"SILAC ratio, Hsdl1",[8]; competitor 25 μM,0.9
"CN1CCN(C(=O)c2[nH]c3ccc([N+](=O)[O-])cc3c2-c2ccccc2)CC1 [MJN228, (4-Methylpiperazin-1-yl)(5-nitro-3-phenyl-1H-indol-2-yl)methanone]",SILAC ratio Hars,[1]; competitor 10 μM,1.6
same,SILAC ratio Hars,[1]; competitor 25 μM,1.5
same,SILAC ratio Hars,[1]; competitor 50 μM,1.0
same,SILAC ratio Hars,[1]; competitor 100 μM,1.4
same,"SILAC ratio, Derl1",[2]; competitor 10 μM,1.2
same,"SILAC ratio, Derl1",[2]; competitor 25 μM,1.4
same,"SILAC ratio, Derl1",[2]; competitor 50 μM,1.7
same,"SILAC ratio, Derl1",[2]; competitor 100 μM,1.8
same,"SILAC ratio, Ephx1",[3]; competitor 10 μM,2.5
same,"SILAC ratio, Ephx1",[3]; competitor 25 μM,3.8
same,"SILAC ratio, Ephx1",[3]; competitor 50 μM,8.2
same,"SILAC ratio, Ephx1",[3]; competitor 100 μM,11.5
same,"SILAC ratio, Tmem33",[4]; competitor 10 μM,1.3
same,"SILAC ratio, Tmem33",[4]; competitor 25 μM,1.5
same,"SILAC ratio, Tmem33",[4]; competitor 50 μM,1.5
same,"SILAC ratio, Tmem33",[4]; competitor 100 μM,2.0
same,SILAC ratio Tfrc,[5]; competitor 10 μM,1.1
same,SILAC ratio Tfrc,[5]; competitor 25 μM,1.0
same,SILAC ratio Tfrc,[5]; competitor 50 μM,1.0
same,SILAC ratio Tfrc,[5]; competitor 100 μM,1.0
same,"SILAC ratio, Atp2a2",[6]; competitor 10 μM,1.3
same,"SILAC ratio, Atp2a2",[6]; competitor 25 μM,1.4
same,"SILAC ratio, Atp2a2",[6]; competitor 50 μM,1.4
same,"SILAC ratio, Atp2a2",[6]; competitor 100 μM,1.9
same,"SILAC ratio, TMEM48 (Q8VCB1)",[7]; competitor 25 μM,1.5
same,"SILAC ratio, Tmem48",[7]; competitor 10 μM,1.3
same,"SILAC ratio, Tmem48",[7]; competitor 25 μM,1.5
same,"SILAC ratio, Tmem48",[7]; competitor 50 μM,1.9
same,"SILAC ratio, Tmem48",[7]; competitor 100 μM,2.8
same,"SILAC ratio, Hsdl1",[8]; competitor 10 μM,1.1
same,"SILAC ratio, Hsdl1",[8]; competitor 25 μM,1.2
same,"SILAC ratio, Hsdl1",[8]; competitor 50 μM,1.0
same,"SILAC ratio, Hsdl1",[8]; competitor 100 μM,1.5
